Series [1] addresses D-amino-acid oxidase (Mus musculus, UniProt P18894). The series can be described thus: Inhibition of full length mouse DAO transfected with CHO-K1 cells incubated for 30 mins by Amplex red and horseradish peroxidase based fluorescence assay. The class given is cell-based.
Another series has as its target T1, Glucocorticoid receptor (Homo sapiens, UniProt P04150).
T1 sequence (P04150 whole entry): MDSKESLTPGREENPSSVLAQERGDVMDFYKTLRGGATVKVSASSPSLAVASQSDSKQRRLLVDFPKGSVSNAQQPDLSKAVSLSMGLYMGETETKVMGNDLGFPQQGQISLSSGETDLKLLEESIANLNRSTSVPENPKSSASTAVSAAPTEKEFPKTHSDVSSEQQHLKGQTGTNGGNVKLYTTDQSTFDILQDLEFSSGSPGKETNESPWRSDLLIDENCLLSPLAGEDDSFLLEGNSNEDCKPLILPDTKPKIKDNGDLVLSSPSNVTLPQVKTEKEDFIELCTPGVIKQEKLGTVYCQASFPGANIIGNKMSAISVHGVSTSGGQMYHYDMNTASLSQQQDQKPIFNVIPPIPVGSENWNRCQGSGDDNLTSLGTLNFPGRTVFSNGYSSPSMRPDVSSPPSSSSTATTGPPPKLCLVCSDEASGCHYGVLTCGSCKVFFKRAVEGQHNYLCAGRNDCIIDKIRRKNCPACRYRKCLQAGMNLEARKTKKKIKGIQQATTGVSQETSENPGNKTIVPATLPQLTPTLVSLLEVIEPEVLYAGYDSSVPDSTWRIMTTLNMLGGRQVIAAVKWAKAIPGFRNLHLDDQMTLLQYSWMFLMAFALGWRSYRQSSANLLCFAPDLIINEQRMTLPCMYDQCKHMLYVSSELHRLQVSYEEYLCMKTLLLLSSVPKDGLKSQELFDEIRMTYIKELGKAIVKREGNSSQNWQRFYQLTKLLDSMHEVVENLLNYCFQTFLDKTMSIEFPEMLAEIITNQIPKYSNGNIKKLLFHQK
The series can be described thus: Inhibition of GR human glucocorticoid NHR incubated for 360 mins by scintillation counting based radiometry assay.

In a further series the target is T2, Adenosine receptor A3 (Homo sapiens, UniProt P0DMS8).
T2 sequence (P0DMS8 whole entry): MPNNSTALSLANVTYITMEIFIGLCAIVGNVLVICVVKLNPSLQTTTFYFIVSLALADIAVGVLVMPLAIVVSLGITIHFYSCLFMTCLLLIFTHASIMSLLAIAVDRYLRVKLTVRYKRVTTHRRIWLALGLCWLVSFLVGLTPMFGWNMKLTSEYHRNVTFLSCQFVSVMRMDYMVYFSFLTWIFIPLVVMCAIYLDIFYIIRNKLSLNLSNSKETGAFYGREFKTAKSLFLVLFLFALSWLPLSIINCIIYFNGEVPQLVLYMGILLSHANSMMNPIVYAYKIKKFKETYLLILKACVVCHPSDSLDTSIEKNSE
In words: Inhibition of recombinant human adenosine A3 GPCR incubated for 120 mins by scintillation counting based radiometry assay.

In series [2] the target is T3, Peroxisome proliferator-activated receptor gamma (Homo sapiens, UniProt P37231).
T3 sequence (P37231 whole entry): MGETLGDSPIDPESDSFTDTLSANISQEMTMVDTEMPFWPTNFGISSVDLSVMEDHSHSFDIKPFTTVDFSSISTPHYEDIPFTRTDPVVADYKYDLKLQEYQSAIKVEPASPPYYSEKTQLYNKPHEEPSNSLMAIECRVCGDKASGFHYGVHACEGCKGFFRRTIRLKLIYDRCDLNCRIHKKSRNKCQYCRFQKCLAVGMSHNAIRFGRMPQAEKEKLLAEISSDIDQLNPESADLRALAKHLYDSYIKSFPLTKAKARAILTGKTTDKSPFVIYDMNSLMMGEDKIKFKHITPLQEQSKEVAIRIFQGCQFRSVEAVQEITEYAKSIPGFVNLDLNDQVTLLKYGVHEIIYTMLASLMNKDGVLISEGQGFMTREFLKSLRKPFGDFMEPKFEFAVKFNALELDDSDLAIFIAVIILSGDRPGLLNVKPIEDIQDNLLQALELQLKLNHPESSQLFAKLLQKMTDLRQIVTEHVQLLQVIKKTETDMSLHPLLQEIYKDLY
The series can be described thus: Inhibition of recombinant human PPAR gamma NHR incubated for 120 mins by scintillation counting based radiometry assay.

In series [3] the target is T4, Polyunsaturated fatty acid 5-lipoxygenase (Homo sapiens, UniProt P09917).
T4 sequence (P09917 whole entry): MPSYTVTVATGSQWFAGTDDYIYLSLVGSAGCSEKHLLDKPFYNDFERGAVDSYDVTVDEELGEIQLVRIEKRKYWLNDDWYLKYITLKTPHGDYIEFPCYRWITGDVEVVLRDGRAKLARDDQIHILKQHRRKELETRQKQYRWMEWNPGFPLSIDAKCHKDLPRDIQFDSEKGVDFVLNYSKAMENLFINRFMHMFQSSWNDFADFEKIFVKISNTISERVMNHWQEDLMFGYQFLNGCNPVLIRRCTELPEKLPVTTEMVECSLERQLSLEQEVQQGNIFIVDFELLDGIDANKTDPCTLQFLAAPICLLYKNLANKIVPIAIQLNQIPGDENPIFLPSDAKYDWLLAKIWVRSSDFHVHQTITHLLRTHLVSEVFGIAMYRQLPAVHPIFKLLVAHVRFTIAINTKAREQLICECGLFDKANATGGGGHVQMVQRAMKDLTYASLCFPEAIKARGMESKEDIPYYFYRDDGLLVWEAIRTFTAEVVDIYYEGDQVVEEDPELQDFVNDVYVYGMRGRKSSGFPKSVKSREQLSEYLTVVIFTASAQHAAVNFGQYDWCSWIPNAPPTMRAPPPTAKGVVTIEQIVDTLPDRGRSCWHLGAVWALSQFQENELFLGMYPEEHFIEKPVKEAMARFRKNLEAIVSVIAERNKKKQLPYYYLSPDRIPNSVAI
The series can be described thus: Inhibition of human recombinant 5-LOX incubated for 5 mins by fluorimetry.

Series [4] concerns the target T5, Prostaglandin G/H synthase 2 (Homo sapiens, UniProt P35354).
T5 sequence (P35354 whole entry): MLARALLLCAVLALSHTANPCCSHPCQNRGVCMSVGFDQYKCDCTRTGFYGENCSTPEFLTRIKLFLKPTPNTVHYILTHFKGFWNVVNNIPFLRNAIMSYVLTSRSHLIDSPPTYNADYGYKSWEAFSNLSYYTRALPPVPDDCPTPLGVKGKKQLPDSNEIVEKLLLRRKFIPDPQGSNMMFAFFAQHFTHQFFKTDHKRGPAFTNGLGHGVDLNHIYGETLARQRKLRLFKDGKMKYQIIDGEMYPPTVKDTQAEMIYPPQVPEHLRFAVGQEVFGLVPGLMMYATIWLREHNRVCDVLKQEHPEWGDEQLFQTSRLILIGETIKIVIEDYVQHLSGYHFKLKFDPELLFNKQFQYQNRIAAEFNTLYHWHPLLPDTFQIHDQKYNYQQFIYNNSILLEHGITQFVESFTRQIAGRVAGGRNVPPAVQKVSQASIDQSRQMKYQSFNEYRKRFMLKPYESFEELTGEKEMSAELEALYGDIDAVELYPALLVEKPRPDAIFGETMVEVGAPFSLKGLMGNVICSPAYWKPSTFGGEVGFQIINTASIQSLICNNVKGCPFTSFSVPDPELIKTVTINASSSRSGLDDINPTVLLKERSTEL
The series can be described thus: Inhibition of human COX2.

Series [5] relates to Mus musculus. In words: Effect of compound in C57BL/6 mouse catalepsy model assessed as no catalepsy at 150 mg/kg, po bid administered for every 4 hrs. Type of series: functional, organism-based.
Series [6] in a line: In vivo receptor occupancy at DAO in C57BL/6 mouse cerebellum at 150 mg/kg, po measured after 4 hrs relative to control. Type of series: functional.
Series [7] deals with Mus musculus. In words: Effect of compound in C57BL/6 mouse catalepsy model assessed as decrease in plasma prolactin level at 150 mg/kg, po bid administered for every 4 hrs. Type of series: functional, organism-based.
A short description of series [8]: In vivo receptor occupancy at DAO in C57BL/6 mouse cerebellum at 150 mg/kg, po measured after 10 hrs relative to control. The class given is functional.
The nature of series [9]: In vivo receptor occupancy at DAO in C57BL/6 mouse cerebellum at 150 mg/kg, po measured after 6 hrs relative to control. Type of series: functional.
The nature of series [10]: Brain to plasma permeability coefficient, Kp in C57Bl/6 mouse 2 mg/kg, po or 0.5 mg/kg,iv by LC-MS-MS analysis. The class given is ADME, organism-based. The conditions noted are these: C57Bl/6, mouse, brain and plasma, read-out: Kp.
The target in series [11] is D-amino-acid oxidase (Homo sapiens, UniProt P14920). The series can be described thus: Inhibition of recombinant full length human DAO preincubated with compound for 20 mins measured after 4 hrs by Amplex red and horseradish peroxidase based fluorescence assay.
The nature of series [12]: Half life in C57/BL6 mouse at 0.5 mg/kg,iv by LC-MS-MS analysis. The conditions noted are these: in vivo. Type of series: ADME, organism-based.
Series [13] in a line: Efflux ratio of apparent permeability across basolateral to apical side over apical to basolateral side in MDCK-MDR1 cells. As to conditions: dog.
Series [14] is described as follows: Volume of distribution at steady state in C57/BL6 mouse at 2 mg/kg, po or 0.5 mg/kg,iv by LC-MS-MS analysis. Type of series: ADME, organism-based. The conditions noted are these: in vivo.
Series [15] in a line: Dose normalized AUC in C57/BL6 mouse at 2 mg/kg, po by LC-MS-MS analysis. Type of series: ADME, organism-based. The conditions noted are these: in vivo.
Series [16] can be described thus: Oral bioavailability in C57/BL6 mouse at 2 mg/kg by LC-MS-MS analysis. As to conditions: in vivo. Type of series: ADME, organism-based.
A short description of series [17]: Unbound drug concentration in C57Bl/6 mouse brain at 2 mg/kg, po or 0.5 mg/kg,iv by LC-MS-MS analysis. As to conditions: C57Bl/6, mouse, brain. The class given is ADME, organism-based.
Series [18] is described as follows: Unbound brain-to-plasma concentration ratio in C57Bl/6 mouse at 2 mg/kg, po or 0.5 mg/kg,iv by LC-MS-MS analysis. Type of series: ADME, organism-based. As to conditions: C57Bl/6, mouse, brain and plasma, read-out: K(p,uu,brain).
Series [19] is described as follows: Apparent permeability across apical to basolateral membrane in MDCK-MDR1 cells by LC-MS/MS analysis. As to conditions: dog.
The nature of series [20]: Unbound drug concentration in C57Bl/6 mouse plasma at 2 mg/kg, po or 0.5 mg/kg,iv by LC-MS-MS analysis. The class given is ADME, organism-based. The conditions noted are these: C57Bl/6, mouse, plasma.

Active and inactive are the calls of the source. The rule behind the calls is not given here.

D-amino-acid oxidase (Mus musculus, UniProt P18894), sequence (P18894 whole entry): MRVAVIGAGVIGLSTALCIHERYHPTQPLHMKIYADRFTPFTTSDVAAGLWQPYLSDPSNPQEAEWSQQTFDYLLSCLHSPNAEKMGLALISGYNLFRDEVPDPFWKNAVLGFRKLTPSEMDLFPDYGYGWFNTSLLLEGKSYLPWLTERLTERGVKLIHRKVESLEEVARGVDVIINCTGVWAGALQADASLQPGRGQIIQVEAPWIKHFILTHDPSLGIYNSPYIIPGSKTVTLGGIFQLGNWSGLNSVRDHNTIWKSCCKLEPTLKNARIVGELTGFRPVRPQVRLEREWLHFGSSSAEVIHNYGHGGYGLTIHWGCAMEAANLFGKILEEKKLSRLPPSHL
D-amino-acid oxidase (Homo sapiens, UniProt P14920), sequence (P14920 whole entry): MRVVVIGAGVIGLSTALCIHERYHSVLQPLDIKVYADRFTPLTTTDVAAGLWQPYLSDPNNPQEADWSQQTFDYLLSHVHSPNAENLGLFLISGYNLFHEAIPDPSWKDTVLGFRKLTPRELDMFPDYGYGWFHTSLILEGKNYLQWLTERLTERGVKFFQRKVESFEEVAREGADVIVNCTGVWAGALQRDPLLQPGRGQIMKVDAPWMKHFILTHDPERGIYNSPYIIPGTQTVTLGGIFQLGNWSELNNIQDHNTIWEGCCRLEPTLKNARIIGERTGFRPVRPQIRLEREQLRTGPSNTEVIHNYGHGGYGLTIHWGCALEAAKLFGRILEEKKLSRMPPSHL

For orientation: EC50 means the concentration needed to bring the measured effect to its halfway point. A high value points to weaker potency. One may read the IC50 as the concentration at which inhibition is half-maximal. The molecule `O=c1[nH]cc(CSc2ccc(C(F)F)cc2)[nH]c1=O` yielded an EC50 on D-amino-acid oxidase [1] of 0.62 µM. Besides, the IC50 (at Glucocorticoid receptor; on Adenosine receptor A3; in [2]; in series [3]; in [4]) was greater than 10 µM each time.
As for `O=c1[nH]cc(CSc2ccc(C(F)(F)F)cc2)[nH]c1=O`, the midpoint of the response on D-amino-acid oxidase [1], the EC50, lay at 0.51 µM. The outcome with Mus musculus [5] and in the series on Mus musculus [7] was Active. The IC50 (against Glucocorticoid receptor; at Adenosine receptor A3; in series [2]; in [3]; in [4]) was greater than 10 µM each time. The Activity was 75% in [6], 59% in series [8] and 86% in [9].
What is called Kp is tissue or fluid exposure divided by exposure in the circulation. What is called half-life is the time in which the quantity being followed falls by half. By efflux ratio is commonly meant a quotient of directional permeabilities that is used to spot active efflux. Usually bioavailability stands for the share of a dose that reaches the circulation, judged against a reference dose that is usually intravenous. Lower therefore signals little systemic uptake. Broadly, the fraction unbound is free concentration divided by total concentration. Read a high fraction unbound as much free substance. The Papp A→B is the apparent permeability from the apical to the basolateral side of a cell layer. On to `O=c1[nH]c2ccsc2[nH]c1=O`, for which the Kp in series [10] turned out to be 0.004. Further, the IC50 on D-amino-acid oxidase [11] amounted to 0.12 µM. For the same molecule, the half-life in series [12] is 1.2 h. Moreover, the efflux ratio in series [13] amounted to 0.8. Moreover, the Vdss in series [14] came to 0.2 L/kg. The AUC/dose in [15] was 6266 ng·h/mL. In series [16], this molecule showed a bioavailability of 34%. Also, the fraction unbound in [17] turned out to be 0.26; in series [20] it was 0.22. The Kp uu in [18] came to 0.005. In addition, in series [19], the Papp A→B came out at 88 nm/s.

For the origin of these results see ChEMBL document CHEMBL5154896, “Discovery of a Novel Class of d-Amino Acid Oxidase Inhibitors Using the Schrödinger Computational Platform” (J Med Chem, 2022).
